In patent US9434727B2, “Substituted 4-phenylpiperidines, their preparation and use” (THE TRUSTEES OF COLUMBIA UNIVERSITY IN THE CITY OF NEW YORK, priority 2014, dated 2016):
Structures can show the parent of a compound that is named as a salt.

What was measured:
RBP4-TTR interaction [1] = target: T1, RBP4-TTR interaction (Homo sapiens (Human), UniProt P02753); experiment: TR-FRET (HTRF) assay for retinol-induced RBP4-TTR interaction; assay type: biochemical; conditions: in the presence of 1 μM retinol; read-out: HTRF assay for antagonists of RBP4-TTR interaction: IC50
Procedure, shortened: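 Bacterial MBP-RBP4 and Eu³⁺-cryptate-labeled untagged human TTR were incubated with titrated compound in the presence of 1 μM retinol, overnight at +4° C in the dark. Buffer: 10 mM Tris-HCl pH 7.5, 1 mM DTT, 0.05% NP-40, 0.05% Prionex, 6% glycerol, 400 mM KF. Signal is reported as Flu665/Flu620×10,000.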

serum RBP4 = serum RBP4 (Mus musculus (Mouse), UniProt Q00724); experiment: Serum RBP4 levels in Abca4−/− mice; assay type: in vivo; conditions: 25 mg/kg for 12 weeks, mice starting at 17 weeks old
Experimental: (§1) The effectiveness of the compounds listed in Table 1 are tested in wild-type and Abca4−/− mice. The Abca4−/− mouse model manifests accelerated accumulation of lipofuscin in the RPE and is considered a pre-clinical efficacy model for a drug reducing lipofuscin accumulation. Compounds are orally dosed for 3 weeks at 30 mg/kg. There is a reduction in the serum RBP4 level in treated animals. The levels of A2E/isoA2E and other bisretinoids are reduced in treated mice.
(§2) Abca4−/− mice have A2E levels in the ˜15-19 pmoles/eye range at 17 weeks old. Mice, starting at 17 weeks old, were treated with 25 mg/kg of Compound 81 for 12 weeks.

RBP4 [2] = target: T2, RBP4 (Homo sapiens (Human), UniProt P02753); experiment: Scintillation proximity (SPA) RBP4 binding assay; conditions: 10 nM 3H-Retinol, 50 nM biotinylated RBP4
Procedure, shortened: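 Biotinylated urinary human RBP4 (50 nM) on streptavidin-PVT SPA beads with 10 nM ³H-retinol and test compound, in PBS pH 7.4, 1 mM EDTA, 0.1% BSA, 0.5% CHAPS. Nonspecific binding with 20 μM unlabeled retinol. Equilibrated 6 h at room temperature then overnight at 4° C under dim light.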

Abca4−/− mice [3] = experiment: Bisretinoid accumulation in eyes of Abca4−/− mice; assay type: in vivo, mouse; conditions: 25 mg/kg for 12 weeks, mice starting at 17 weeks old, versus vehicle-treated controls
Experimental: as §1, §2

Abca4−/− mice [4] = conditions: cited from earlier work
RBP4 [5] = target: T2, RBP4; conditions: cited from earlier work
[6] = test system: retinal pigment epithelium cells; conditions: many cell types, including the retinal pigment epithelium cells; cited from earlier work
mice = conditions: cited from earlier work
RBP4-TTR interaction [7] = target: T1, RBP4-TTR interaction; conditions: cited from earlier work
serum RBP4 and retinol = serum RBP4 and retinol (Rattus norvegicus (Rat), UniProt P04916); conditions: in vivo; cited from earlier work

| Structure (SMILES) | IC50 (RBP4-TTR interaction [1]) | serum RBP4 level (serum RBP4; present-tense paper example) | IC50 (RBP4 [2]) | further results |
| --- | --- | --- | --- | --- |
| O=C(c1n[nH]c2c1CCNC2)N1CCC(c2cccc(F)c2C(F)(F)F)CC1 [Compound 30, (4-(3-Fluoro-2-(trifluoromethyl)phenyl)piperidin-1-yl)(4,5,6,7-tetrahydro-1H-pyrazolo[3,4-c]pyridin-3-yl)methanone Hydrochloride] | 44.1 nM | significant serum RBP4 reduction | 13.3 nM | – |
| O=C(c1n[nH]c2c1CCNC2)N1CCC(c2ccc(F)c(F)c2C(F)(F)F)CC1 [Compound 34] | 53.1 nM | significant serum RBP4 reduction | 20.7 nM | – |
| O=C(c1n[nH]c2c1CNCC2)N1CCC(c2ccc(F)c(F)c2C(F)(F)F)CC1 [Compound 36, (4-(3,4-Difluoro-2-(trifluoromethyl)phenyl)piperidin-1-yl)(4,5,6,7-tetrahydro-1H-pyrazolo[4,3-c]pyridin-3-yl)methanone Trifluoroacetic Acid Salt] | 291 nM | significant serum RBP4 reduction | 10.9 nM | – |
| O=C(c1n[nH]c2c1CNC2)N1CCC(c2ccc(F)c(F)c2C(F)(F)F)CC1 [Compound 38, (4-(3,4-Difluoro-2-(trifluoromethyl)phenyl)piperidin-1-yl)(1,4,5,6-tetrahydropyrrolo[3,4-c]pyrazol-3-yl)methanone Hydrochloride] | 200 nM | significant serum RBP4 reduction | 26.9 nM | – |
| O=C(c1n[nH]c2c1CCNC2)N1CCC(c2cccc(F)c2Cl)CC1 [Compound 40, (4-(2-Chloro-3-fluorophenyl)piperidin-1-yl)(4,5,6,7-tetrahydro-1Hpyrazolo[3,4-c]pyridin-3-yl)methanone Hydrochloride] | 84.9 nM | significant serum RBP4 reduction | 14 nM | – |
| O=C(c1n[nH]c2c1CNCC2)N1CCC(c2cccc(F)c2Cl)CC1 [Compound 42, (4-(2-Chloro-3-fluorophenyl)piperidin-1-yl)(4,5,6,7-tetrahydro-1Hpyrazolo[4,3-c]pyridin-3-yl) methanone Hydrochloride] | 791 nM | significant serum RBP4 reduction | 424 nM | – |
| CC(=O)N1CCc2c(C(=O)N3CCC(c4ccc(F)c(F)c4C(F)(F)F)CC3)n[nH]c2C1 [Compound 81, 1-(3-(4-(3,4-Difluoro-2-(trifluoromethyl)phenyl)piperidine-1-carbonyl)-4,5-dihydro-1H-pyrazolo[3,4-c]pyridin-6(7H)-yl)ethanone] | – | – | – | serum RBP4 level (serum RBP4): significant serum RBP4 reduction; reduction in bisretinoid content (Abca4−/− mice [3]): 53% |
| CC1=C(/C=C/C(C)=C/C=C/C(C)=C/C(=O)Nc2ccc(O)cc2)C(C)(C)CCC1 [fenretinide, N-(4-hydroxy-phenyl)retinamide] | – | – | – | A2E production (Abca4−/− mice [4]; Abca4−/− mice): reduced A2E production; ocular all-trans retinol uptake and visual cycle (Abca4−/− mice [4]; mouse, in vivo): inhibit ocular all-trans retinol uptake and slow down the visual cycle; binding to RBP4 and displacement of all-trans retinol (RBP4 [5]): bind to RBP4, displace all-trans retinol from RBP4; induction of apoptosis [6]: extremely active inducer of apoptosis; formation of hemangiosarcomas (mice): stimulate formation of hemangiosarcomas; RBP4-TTR interaction (RBP4-TTR interaction [7]): disrupt the RBP4-TTR interaction; serum RBP4 and retinol (serum RBP4 and retinol): reduce serum RBP4 and retinol |
